Species on record: Rattus norvegicus
Format: toxicity, organism-based, Sprague-Dawley
Conditions: in vivo, po, route oral GAVAGE, […]; for ABSOLUTE EOSINOPHIL / ABSOLUTE LYMPHOCYTE / ABSOLUTE MONOCYTE / ABSOLUTE SEGMENTED NEUTROPHIL / BASOPHIL / EOSINOPHIL / ERYTHROCYTE COUNT / HEMATOCRIT / HEMOGLOBIN / LEUKOCYTE COUNT / LYMPHOCYTE / MEAN CORPUSCULAR HEMOGLOBIN / MEAN CORPUSCULAR HEMOGLOBIN CONCENTRATION / MEAN CORPUSCULAR VOLUME / MONOCYTE / NEUTROPHIL / NUCLEATED RED BLOOD CELLS / PLATELET COUNT: tissue Blood; for ALANINE AMINOTRANSFERASE / ALBUMIN / ALKALINE PHOSPHATASE / ASPARTATE AMINOTRANSFERASE / BLOOD UREA NITROGEN / CARBON DIOXIDE / CHLORIDE / CHOLESTEROL / CREATINE PHOSPHOKINASE / CREATININE / GLUCOSE / LACTATE DEHYDROGENASE / LIPASE / PHOSPHORUS / POTASSIUM / SODIUM / TOTAL BILIRUBIN / TOTAL PROTEIN / URIC ACID: tissue Plasma
[1] = 30 mg/kg, 24 h, dose level Low, time 1 day
[2] = 60 mg/kg, 6 h, dose level High, time 0.25 day
[3] = 60 mg/kg, 24 h, dose level High, time 1 day

Description: DrugMatrix - Regimen: Single

For `S=C=Nc1cccc2ccccc12` [1-NAPHTHYLISOTHIOCYANATE], the “ABSOLUTE EOSINOPHIL” value [1] was 0 CELLS/uL, the “ABSOLUTE LYMPHOCYTE” value [1] was 8784 CELLS/uL and the “ABSOLUTE MONOCYTE” value [1] was 359.5 CELLS/uL. The “ABSOLUTE SEGMENTED NEUTROPHIL” value [1] was 2189.83 CELLS/uL, the BASOPHIL [1] was 0% and the EOSINOPHIL [1] was 0%. The “ERYTHROCYTE COUNT” value [1] was 5.45 x10E6/uL, the HEMATOCRIT [1] was 34.5% and the HEMOGLOBIN [1] was 13.67 G/DL. The “LEUKOCYTE COUNT” value [1] was 11.33 x10E3/uL, the LYMPHOCYTE [1] was 78.33% and the “MEAN CORPUSCULAR HEMOGLOBIN” value [1] was 25.1 pg. The “MEAN CORPUSCULAR HEMOGLOBIN CONCENTRATION” value [1] was 39.62 G/DL, the “MEAN CORPUSCULAR VOLUME” value [1] was 63.35 fL and the MONOCYTE [1] was 2.83%. For the same compound, the NEUTROPHIL [1] was 18.83%, the “NUCLEATED RED BLOOD CELLS” value [1] was 0 /100WBC and the “PLATELET COUNT” value [1] was 1092.83 x10E3/uL. The “ALANINE AMINOTRANSFERASE” value [1] was 122 u/L, the ALBUMIN [1] was 3.92 G/DL and the “ALKALINE PHOSPHATASE” value [1] was 386.33 u/L. For the same compound, the “ASPARTATE AMINOTRANSFERASE” value [1] was 211 u/L, the “BLOOD UREA NITROGEN” value [1] was 11.67 mg/dL and the “CARBON DIOXIDE” value [1] was 35.83 mmol/L. For the same compound, the CHLORIDE [1] was 97.33 MEQ/L, the CHOLESTEROL [1] was 83.5 mg/dL and the “CREATINE PHOSPHOKINASE” value [1] was 327.33 u/L. The CREATININE [1] was 0.3 mg/dL, the GLUCOSE [1] was 139.33 mg/dL and the “LACTATE DEHYDROGENASE” value [1] was 171 u/L. The LIPASE [1] was 9.33 u/L, the PHOSPHORUS [1] was 9.87 mg/dL and the POTASSIUM [1] was 4.44 MEQ/L. The SODIUM [1] was 145.25 MEQ/L, the “TOTAL BILIRUBIN” value [1] was 1.02 mg/dL and the “TOTAL PROTEIN” value [1] was 6.05 G/DL. For the same compound, the “URIC ACID” value [1] was 0.5 mg/dL, the “ABSOLUTE EOSINOPHIL” value [2] was 98.5 CELLS/uL and the “ABSOLUTE LYMPHOCYTE” value [2] was 11852.33 CELLS/uL. For the same compound, the “ABSOLUTE MONOCYTE” value [2] was 375.83 CELLS/uL, the “ABSOLUTE SEGMENTED NEUTROPHIL” value [2] was 1556.67 CELLS/uL and the BASOPHIL [2] was 0%. The EOSINOPHIL [2] was 0.67%, the “ERYTHROCYTE COUNT” value [2] was 5.41 x10E6/uL and the HEMATOCRIT [2] was 36.93%. The HEMOGLOBIN [2] was 13.93 G/DL, the “LEUKOCYTE COUNT” value [2] was 13.88 x10E3/uL and the LYMPHOCYTE [2] was 84.83%. For the same compound, the “MEAN CORPUSCULAR HEMOGLOBIN” value [2] was 25.75 pg, the “MEAN CORPUSCULAR HEMOGLOBIN CONCENTRATION” value [2] was 37.73 G/DL and the “MEAN CORPUSCULAR VOLUME” value [2] was 68.25 fL. The MONOCYTE [2] was 2.67%, the NEUTROPHIL [2] was 11.83% and the “NUCLEATED RED BLOOD CELLS” value [2] was 0 /100WBC. For the same compound, the “PLATELET COUNT” value [2] was 1029 x10E3/uL, the “ALANINE AMINOTRANSFERASE” value [2] was 53.6 u/L and the ALBUMIN [2] was 4.36 G/DL. For the same compound, the “ALKALINE PHOSPHATASE” value [2] was 315.4 u/L, the “ASPARTATE AMINOTRANSFERASE” value [2] was 106 u/L and the “BLOOD UREA NITROGEN” value [2] was 9.8 mg/dL. For the same compound, the “CARBON DIOXIDE” value [2] was 17.2 mmol/L, the CHLORIDE [2] was 104.6 MEQ/L and the CHOLESTEROL [2] was 74.6 mg/dL. For the same compound, the “CREATINE PHOSPHOKINASE” value [2] was 475 u/L, the CREATININE [2] was 0.21 mg/dL and the GLUCOSE [2] was 258.8 mg/dL. For the same compound, the “LACTATE DEHYDROGENASE” value [2] was 229.4 u/L, the LIPASE [2] was 11 u/L and the PHOSPHORUS [2] was 16.5 mg/dL. The POTASSIUM [2] was 5.82 MEQ/L, the SODIUM [2] was 145.04 MEQ/L and the “TOTAL BILIRUBIN” value [2] was 0.22 mg/dL. The “TOTAL PROTEIN” value [2] was 5.82 G/DL, the “URIC ACID” value [2] was 2.54 mg/dL and the “ABSOLUTE EOSINOPHIL” value [3] was 30 CELLS/uL. The “ABSOLUTE LYMPHOCYTE” value [3] was 8567.5 CELLS/uL, the “ABSOLUTE MONOCYTE” value [3] was 316 CELLS/uL and the “ABSOLUTE SEGMENTED NEUTROPHIL” value [3] was 2953.17 CELLS/uL. For the same compound, the BASOPHIL [3] was 0%, the EOSINOPHIL [3] was 0.33% and the “ERYTHROCYTE COUNT” value [3] was 5.57 x10E6/uL. For the same compound, the HEMATOCRIT [3] was 34.8%, the HEMOGLOBIN [3] was 13.72 G/DL and the “LEUKOCYTE COUNT” value [3] was 11.87 x10E3/uL. The LYMPHOCYTE [3] was 71.17%, the “MEAN CORPUSCULAR HEMOGLOBIN” value [3] was 24.67 pg and the “MEAN CORPUSCULAR HEMOGLOBIN CONCENTRATION” value [3] was 39.42 G/DL. The “MEAN CORPUSCULAR VOLUME” value [3] was 62.55 fL, the MONOCYTE [3] was 2.67% and the NEUTROPHIL [3] was 25.83%. The “NUCLEATED RED BLOOD CELLS” value [3] was 0 /100WBC, the “PLATELET COUNT” value [3] was 1101.5 x10E3/uL and the “ALANINE AMINOTRANSFERASE” value [3] was 142.33 u/L. For the same compound, the ALBUMIN [3] was 3.88 G/DL, the “ALKALINE PHOSPHATASE” value [3] was 513.83 u/L and the “ASPARTATE AMINOTRANSFERASE” value [3] was 288 u/L. For the same compound, the “BLOOD UREA NITROGEN” value [3] was 11.17 mg/dL, the “CARBON DIOXIDE” value [3] was 34.17 mmol/L and the CHLORIDE [3] was 95.83 MEQ/L. For the same compound, the CHOLESTEROL [3] was 118 mg/dL, the “CREATINE PHOSPHOKINASE” value [3] was 254.17 u/L and the CREATININE [3] was 0.34 mg/dL. The GLUCOSE [3] was 133.33 mg/dL, the “LACTATE DEHYDROGENASE” value [3] was 241.83 u/L and the LIPASE [3] was 80.33 u/L. For the same compound, the PHOSPHORUS [3] was 10.95 mg/dL, the POTASSIUM [3] was 3.66 MEQ/L and the SODIUM [3] was 144.63 MEQ/L. For the same compound, the “TOTAL BILIRUBIN” value [3] was 2.2 mg/dL, the “TOTAL PROTEIN” value [3] was 6.13 G/DL and the “URIC ACID” value [3] was 0.45 mg/dL.

Source: ChEMBL document CHEMBL3885881, “DrugMatrix”
